Each structure is given as a SMILES string. Where two headings read alike, the source gives them in different places.

One data set concerns Sprague-Dawley rats. Kind of data set: blood pressure and pulse frequency in anesthetized rats of normal weight. In kind it is in vivo. The settings on record: for minimal effective dose: Rattus norvegicus, iv, anesthetized rats, i.v. Here is the method: The anti-hypertensive properties of the imidazole derivatives of the present invention have been determined according to the following procedure. Sprague-Dawley rats of normal weight were first anesthetized with urethane. After this, the femoral artery was connected by way of a polyethylene tube with a blood pressure transducer. The test substance was then injected into the femoral vein and the blood pressure and the pulse frequency were registered with a recorder.

Data set [1] can be described thus: acute toxicity, i.v., female mice of NMRI-Strain. The settings on record: mouse, in vivo, iv. Here is the method: Acute toxicity was determined by using female mice of NMRI-Strain with an age of about 7 months and weighing 30-40 g. The administration of the test compound was i.v.
Data set [2] concerns all the bacterial species. Kind of data set: antibacterial activity in vitro, agar diffusion method, all bacterial species. Format: cell-based. The settings on record: 1000 μg/ml. Here is the method:
(§1) The antimicrobial activity was determined in vitro according to a qualitative test for antibacterial and antifungal activity, using the agar diffusion method, against the following standard organisms: Staphylococcus aureus, Streptococcus pyogenes, Escherichia coli, Proteus mirabilis, Pseudomonas aeruginosus, Candida albicans and Aspergillus niger.

For another data set, the system named is Candida albicans. Kind of data set: antifungal activity in vitro, agar diffusion method, Candida albicans. Format: cell-based. The settings on record: 1000 μg/ml. Here is the method: as §1
Another data set relates to Aspergillus niger. Kind of data set: antifungal activity in vitro, agar diffusion method, Aspergillus niger. In kind it is cell-based. The settings on record: 1000 μg/ml. Here is the method: as §1
Data set [3] relates to all standard bacterial and fungal species. Description: antimicrobial activity in vitro, agar diffusion method, all standard bacterial and fungal species. Format: cell-based. The settings on record: 1000 μg/ml. Here is the method: as §1
For a further data set, the system named is rats. Kind of data set: diuretic effect in rats, urine output 0-5 hours after i.p. injection. In kind it is in vivo. Here is the method: The diuretic effect was studied in rats by collecting the urine output during 0-5 hours after i.p. injection of the compound. Before the test the rats were fasting overnight and got 10 ml water p.o. immediately before the injection.

The next data set relates to E. coli. Kind of data set: antibacterial activity in vitro, agar diffusion method, E. coli. Format: cell-based, Escherichia coli. The following applies: 100 μg/ml. Here is the method:
as §1

A further data set relates to Staph. aureus. Description: antibacterial activity in vitro, agar diffusion method, Staph. aureus. The settings on record: 100 μg/ml. Format: cell-based, Staphylococcus aureus. Here is the method: as §1
Data set [4] relates to all other bacterial and fungal species. Kind of data set: antimicrobial activity in vitro, agar diffusion method, all other bacterial and fungal species (than E. coli and Staph. aureus). In kind it is cell-based. The settings on record: 1000 μg/ml. Here is the method:
as §1

Data set [5] relates to isoprenaline-induced chronotropic and inotropic action in the isolated atrium. Kind of data set: β-blocking activity in vitro, isoprenaline-induced chronotropic and inotropic action in isolated guinea-pig atrium. The settings on record: Cavia porcellus; 1 μg/ml; read-out: inhibition of isoprenaline-induced chronotropic effect. In kind it is cell-based. Here is the method:
The β-blocking activity was measured in vitro as follows: The atrium of a guinea-pig was isolated. The inhibiting activity of the compound against isoprenaline-induced chronotropic and inotropic action in the isolated atrium was measured.

Another data set relates to fungi. Description: antifungal activity in vitro, agar diffusion method, fungi. Format: cell-based, Candida albicans and Aspergillus niger. The settings on record: 1000 μg/ml. Here is the method:
as §1

For data set [6], the system named is arachidonic acid induced pulmonary thromboembolism. Kind of data set: antithrombotic activity in vivo, arachidonic acid induced pulmonary thromboembolism in mice. The settings on record: 10 mg/kg p.o. Here is the method:
The antithrombotic activity was investigated in vivo in mice as follows: The compounds to be tested were administered orally. After this arachidonic acid was given i.v. The inhibiting activity of the test compounds against arachidonic acid induced pulmonary thromboembolism was investigated.

Data set [7] has as its system collagen-induced aggregation of thrombocytes. Kind of data set: antithrombotic activity in vitro, collagen-induced aggregation of thrombocytes. Format: cell-based. The settings on record: cow thrombocytes, 10 min incubation. Here is the method: (§2) In a further test the antithrombotic activity was investigated in vitro. The inhibiting activity of the compounds against ADP- and collagen-inducedaggregation of thrombocytes was measured. In the test thrombocytes from a cow was used. To 1.2 ml of plasma containing 250000 thrombocytes/mm^3 were added 50 μl of a solution of the compound to be tested. After 10 min incubation either ADP or collagen was added. The aggregation of the thrombocytes was turbidimetrically determined at λ=605 n m.

Data set [8] concerns ADP-induced aggregation of thrombocytes. Description: antithrombotic activity in vitro, ADP-induced aggregation of thrombocytes. Format: cell-based. The following applies: cow thrombocytes, 10 min incubation. Here is the method: as §2
Setting [9] is: read-out: dose i.v. causing a registrable lowering of the blood pressure.
[10] abbreviates: 1 mg/kg, 20 minutes after administration.
[11] abbreviates: 300 μg/kg i.v., 20 minutes after administration.

Consider `Cc1[nH]cnc1C=Cc1c(Cl)cccc1Cl` [4-[2-(2',6'-Dichlorophenyl)-ethenyl]-5-methyl-imidazole], for which the “lowering of the blood pressure” value with Sprague-Dawley rats (3 mg/kg i.v., 20 minutes after administration) came to 30%. Further, the values for the minimal effective dose with Sprague-Dawley rats (read-out: dose i.v. at which a decrease of pulse frequency was noticed) and with Sprague-Dawley rats (setting [9]) were 1 mg/kg and 0.3 mg/kg, respectively. Further, the LD50 in data set [1] was 100 mg/kg. For the same compound, the “activity against all the bacterial species” value in [2] is on record as “active”. Further, in the data set on Candida albicans, the “activity against Candida albicans” value is on record as “active”. In the data set with Aspergillus niger, the “activity against Aspergillus niger” value is “inactive”.
`Clc1cccc(Cl)c1C=Cc1c[nH]cn1` [4-[2-(2',6'-Dichlorophenyl)-ethenyl]-imidazole]: in the data set with Sprague-Dawley rats (setting [10]), the “decrease of pulse frequency” value was 30%. Moreover, the “lowering of the blood pressure” value in the data set with Sprague-Dawley rats (setting [10]) turned out to be 25%. The same compound showed an LD50 in data set [1] of 85 mg/kg. Besides, in data set [3], the “antimicrobial activity against all standard bacterial and fungal species” value is recorded as “active”. The “diuretic effect (5h)” value in the data set with rats (0.005 mg/kg i.p.) is recorded as 128%; in the data set with rats (0.05 mg/kg i.p.), 132%; in the data set on rats (0.5 mg/kg i.p.), 135%.
For the compound `Cc1cccc(C)c1CCCC=Cc1c[nH]cn1` [4-[5-(2',6'-Dimethylphenyl)-1-pentenyl]-imidazole], in [1], the LD50 was determined as 40 mg/kg. Further, the “activity against E. coli” value in the data set with E. coli is listed as “active”. In addition, the “activity against Staph. aureus” value in the data set with Staph. aureus was “active”. For the same compound, in data set [4], the “activity against all other bacterial and fungal species” value is reported as “active”. For the same compound, the inhibition at 1 µg/mL in data set [5] is 57%.
Regarding `Cc1cccc(C)c1CC=Cc1c[nH]cn1` [4-[3-(2',6'-Dimethylphenyl)-1-propenyl]-imidazole], the “decrease of the blood pressure” value in the data set on Sprague-Dawley rats (1-3 mg/kg i.v., 20 minutes after administration) was 20%. In addition, in data set [1], the LD50 amounted to 75 mg/kg.
On to `Cc1[nH]cnc1C=Cc1ccccc1Cl` [4-[2-(2'-Chlorophenyl)-ethenyl]-5-methyl-imidazole], for which, in data set [1], the LD50 was 85 mg/kg. Besides, in data set [2], the “activity against all the bacterial species” value was “active”. In addition, in the data set with fungi, the “activity against the fungi” value is on record as “not against the fungi”. In addition, the inhibition at 1 µg/mL in data set [5] was determined as 67%. The “mice protected from arachidonic acid-induced pulmonary thromboembolism” value in [6] is listed as 4 of 5.
Take `Cc1cccc(CC=Cc2c[nH]cn2)c1C` [4-[3-(2',3'-Dimethylphenyl)-1-propenyl]-imidazole]: the “decrease of the blood pressure” value with Sprague-Dawley rats (0.3-1 mg/kg i.v., 20 minutes after administration) is 20%. Moreover, in [1], the LD50 came out at 75 mg/kg. Further, the “inhibition of collagen-induced thrombocyte aggregation” value in data set [7] is recorded as “completely”. For the same compound, the “inhibition of ADP-induced thrombocyte aggregation” value in [8] is recorded as “clearly”.
On to `Cc1cccc(C)c1/C=C/c1c[nH]cn1` [4-[2-(2',6'-Dimethylphenyl)-ethenyl]-imidazole], for which, in the data set on Sprague-Dawley rats (setting [11]), the “decrease of pulse frequency” value was determined as 24% and the “reduction of the blood pressure” value is given as 20%. Also, the minimal effective dose in the data set with Sprague-Dawley rats (setting [9]) amounted to 0.01 mg/kg. This compound also returned an LD50 in [1] of 50 mg/kg.

These data come from patent US4333947A, “Substituted imidazoles and their use” (Farmos-Yhtyma Oy, priority 1980, dated 1982).
